Test results published in ChEMBL document CHEMBL2074374, “The nuclear receptor PXR is a lithocholic acid sensor that protects against liver toxicity” (Proc Natl Acad Sci U S A, 2001).

Target: T1, Solute carrier organic anion transporter family member 1A4 (Mus musculus, UniProt Q9EP96)
T1 sequence (Q9EP96 whole entry): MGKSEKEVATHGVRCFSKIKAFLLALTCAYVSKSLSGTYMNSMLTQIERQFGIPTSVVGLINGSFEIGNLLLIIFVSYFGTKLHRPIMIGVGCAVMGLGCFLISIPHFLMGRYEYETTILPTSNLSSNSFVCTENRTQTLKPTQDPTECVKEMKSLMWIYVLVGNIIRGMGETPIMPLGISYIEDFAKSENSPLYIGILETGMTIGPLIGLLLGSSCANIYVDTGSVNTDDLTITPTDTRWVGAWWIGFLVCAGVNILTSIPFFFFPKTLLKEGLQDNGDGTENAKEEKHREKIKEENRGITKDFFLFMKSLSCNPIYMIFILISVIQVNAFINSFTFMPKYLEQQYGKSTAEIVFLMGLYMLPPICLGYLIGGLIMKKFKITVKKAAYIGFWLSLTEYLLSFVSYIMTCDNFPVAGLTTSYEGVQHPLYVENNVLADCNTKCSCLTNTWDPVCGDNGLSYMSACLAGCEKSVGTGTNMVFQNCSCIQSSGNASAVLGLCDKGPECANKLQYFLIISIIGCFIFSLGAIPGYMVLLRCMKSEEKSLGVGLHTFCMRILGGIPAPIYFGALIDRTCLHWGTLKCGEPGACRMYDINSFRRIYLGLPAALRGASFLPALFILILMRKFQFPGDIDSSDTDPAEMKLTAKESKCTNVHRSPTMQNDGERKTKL
Assay: TP_TRANSPORTER: Northern blot in vivo, liver of PXR+/+ mouse
Format: functional, organism-based

| SMILES | Activity |
| --- | --- |
| C[C@H](CCC(=O)O)[C@H]1CC[C@H]2[C@@H]3CC[C@@H]4C[C@H](O)CC[C@]4(C)[C@H]3CC[C@]12C [LITHOCHOLIC ACID] | inducer [+] |
| CC(=O)[C@H]1[C@H](C#N)C[C@H]2[C@@H]3CC=C4C[C@@H](O)CC[C@]4(C)[C@H]3CC[C@@]21C [PREGNENOLONE CARBONITRILE] | inducer [+] |
